One data set deals with BDL cirrhotic rats. Description: Bile duct ligated rat model, IP ornithine, phenylbutyrate, OP. The format is in vivo, Sprague-Dawley rats. The procedure:
Male Sprague-Dawley rats (200-250 g) were used for this procedure. Following anaesthetisation, a mid-line laparotamy was performed, the bile duct was exposed, triply ligated with 4.0 silk suture, and severed between the second and third ligature. The wound was closed in layers with absorbable suture, and the animal allowed to recover in a quiet room before being returned to the animal storage facility. Animals were kept at a constant temperature (20° C.) in a 12 hour light/dark cycle with access to water and standard rodent chow ad libitum. […] At six weeks, under anaesthesia a right carotid arterial catheter was inserted and used to collect repeated blood samples. Following this procedure a baseline sample was collected prior to administration of the study formulations by IP injection. […] Blood samples were collected into pre-cooled […] tubes and stored on ice prior to processing. Plasma was collected following centrifugation (3,000 rpm, 10 mins) and stored at -80° C. prior to analyses. Ammonia, glucose, lactate and urea were measured using a COBRAS Mira S according to manufacturers instructions. Amino acids were quantified by HPLC with fluorescence detection.

The subject of data set [1] is devascularized pig model of acute liver failure. Description: Devascularized pig model of acute liver failure. The class given is in vivo, pigs. Particulars: for muscle ammonia uptake/production (femoral vein-artery): FIG. 23.
Description: Pigs had catheters inserted into the femoral artery and vein, portal vein, renal vein and pulmonary artery. The experiment started at time=−1 hr, when placebo or treatment infusions were started.
1. Placebo: 5% Dextrose over 3 hours, oral water placebo
At the end of the experiment a section of frontal cortex was removed for brain water measurements.
Data set [2] has as its system patients with cirrhosis and hyperammonemia. As to the kind of experiment: Open labelled study of ornithine, phenylbutyrate and OP in hepatic encephalopathy. The format is in vivo, human. Particulars: for mean ammonia levels: over the period of treatment (FIG. 11); for mean glutamine levels: over the period of treatment (FIG. 12). An excerpt: • 1. Groups-3 patients per group. Total 12. • 2. Inclusion criteria • adult patients aged 18-80 years, —liver cirrhosis documented by histology or clinical criteria • HE type C, ammonia concentration of >80 umol/L, informed consent/assent • 3. Exclusion criteria • other concomitant neurological disorder, —use of another specific ammonia lowering drug, —respiratory failure requiring mechanical ventilation and sedation, —uncontrolled gastrointestinal bleeding, —hypotension requiring inotropes, overt renal failure (creatinine >2 mg/dl), hemodialysis, —extracorporeal liver support, known hypersensitivity to any of the study drugs, —pregnancy. Assessment of Mental State
In an open labelled study, we included 8 patients with cirrhosis and hyperammonemia. They were matched for the severity of liver disease (see Table 3). They were treated with one of the following regimes for a 3 day period and observations were made for 5 days. The study groups were:
(i) Placebo: 5% Dextrose over 4 hours;
(iii) Phenylbutyrate: 10 g twice daily, orally (0800 and 1600); and
Patients were fasted overnight between 0000 midnight and 0800 am. They were fed intragastrically with a diet of 25 KCal/Kg that included 1 g/Kg protein diet starting at 0800 and finishing at midnight. Blood was sampled at 0730 am and then at 1800 hr for the measurement of ammonia and glutamine. Patients were monitored closely for side effects.

Data set [3] deals with patients with cirrhosis admitted for management of variceal bleeding. Description: Open labelled study of isoleucine and OIP after variceal bleeding. The format is in vivo, human. The protocol: • 1. Groups—2 patients per group. Total 6 • 2. Inclusion criteria • Adult patients aged 18-80 years, liver cirrhosis documented by histology or clinical criteria, Child B or C, recent Gastrointestinal bleed from varices (<6 hours after presentation), informed consent/assent. • 3. Exclusion criteria • other concomitant neurological disorder, use of another specific ammonia lowering drug, respiratory failure requiring mechanical ventilation and sedation, uncontrolled gastrointestinal bleeding, hypotension requiring inotropes, overt renal failure (creatinine >2 nag/dl), hemodialysis, extracorporeal liver support, known hypersensitivity to any of the study drugs, pregnancy/lactation. Methods
In an open labelled study, we included 6 patients with cirrhosis and who were admitted for management of variceal bleeding. They were matched for the severity of liver disease (see Table 4). They were treated with one of the following regimes for a 3 day period and observations were made for 5 days. The study groups were:
i. Placebo: 5% Dextrose over 4 hours (250 ml)
ii. Isoleucine alone: 10 gm IV in 250 ml 5% Dextrose over 2 hours in two divided doses.
Patients were fasted overnight between 0000 midnight and 0800 am. They were fed intragastrically with a diet of 25 KCal/Kg that included 1 g/Kg protein diet starting at 0800 and finishing at midnight. Blood was sampled at 0730 am and then at 1800 hr for the measurement of ammonia and glutamine. Patients were monitored closely for side effects. The drug was tolerated well in each of the groups and no adverse events were observed. Because the patients received sedation for their initial endoscopy, the mental state assessment was impossible to interpret. One patient each in the Placebo and the Isoelucine groups died from multiorgan failure in the hospital. The rest of the patients survived.

For data set [4], the system named is neutrophils. Particulars: blood incubated 1 hour with increasing concentrations of ammonia; 10 ng/ml IL-8 (FIG. 3). The protocol:
Neutrophil Chemotaxis: Neutrophil chemotaxis was measured using a modified Boyden chamber method using interleukin-8 as chemo-attractant to stimulate chemokinesis.
(§1) Blood was collected from healthy volunteers (n=15) and incubated for 1 hour with increasing concentrations of ammonia. The ability of the neutrophils to phagocytose bacteria was measured using the Phagotest and Neutrophil chemotaxis assays. 10 ng/ml IL-8 was used in the Neutrophil chemotaxis assay.

Data set [5] relates to neutrophils. As to the kind of experiment: Phagotest neutrophil phagocytosis, blood incubated with ammonia and amino acids. The class given is cell-based, human. The protocol:
Methods for Measurement of Neutrophil Phagocytosis and oxidative burst Phagotest: Heparinised whole blood was incubated with opsonised FITC-labelled E coil and CD16. The cells were then analysed by flow cytometry (FACScan Becton Dickinson), gated through forward and side scatter and subsequently assessed on the basis of R-phycoerythrin (PE) [Immunotech, Marseille, France] flurochrome expression to identify CD16 positive cells. The gated population was then assessed for the presence of FITC-labelled bacteria.
as §1
Blood was collected from healthy volunteers (n=15) and incubated for 1 hour with ammonia and selected amino acids. The ability of the neutrophils to phagocytose bacteria was measured using the Phagotest assay.

The test system of data set [6] is patients with biopsy-proven cirrhosis of the liver. As to the kind of experiment: Simulated bleed with isoleucine supplementation: protein kinetics (Phe model) and ammonia. The format is in vivo, human. Particulars: for Net Balance / Protein breakdown / Protein synthesis: mean ± SEM. The protocol:
Sixteen metabolically stable patients with biopsy-proven cirrhosis of the liver were studied. Patients were randomized either to supplementation with isoleucine (40 mg/L solution; 50 ml/hr) or placebo during a simulated bleed over a 4-hour period. Protein synthesis (measured using primed continuous infusion of L-[ring-^2H5]phenylalanine), L-[ring-^2H4]tyrosine and L[ring-^2H2]tyrosine) and ammonia.

In data set [7] the test system is patients with biopsy proven cirrhosis of the liver. Description: Simulated gastrointestinal bleed in cirrhotic patients, neutrophil chemotaxis with isoleucine infusion. The format is in vivo, human. Particulars: after simulated bleed (75 g amino acid mixture), isoleucine iv over 2 hours. An excerpt: Ten overnight fasted, metabolically stable patients with biopsy proven cirrhosis of the liver [9 males and 1 female; mean 49.6 years (SEM 9.1); mean Child-Pugh score of 7.8 (SEM 1.2)] were studied prior to and two hours after an oral administration of 75 grams of an amino acid mixture that mimics the hemoglobin molecule (Nutricia, Cuijk, Netherlands). In seven other patients [4 male and 3 female; mean 51.4 years (SEM 6.7); mean Child-Pugh score of 8.1 (SEM 1.4)], following administration of the amino acid mixture, isoleucine was administered intravenously over a 2 hour period (iso-osmotic solution containing 40 mg/l of isoleucine at a rate of 100 ml/hr). Neutrophil chemotaxis (see Example 1 for method) and plasma ammonia were measured in peripheral venous blood samples.

For data set [8], the system named is patients with HE grade 3 undergoing heamofiltration. Description: LOLA infusion in patients undergoing heamofiltration (CVVH). The format is in vivo, human. An excerpt: (§2) Blood was sampled for the measurement of ammonia and glutamine.
The subject of the next data set is patients with cirrhosis. As to the kind of experiment: LOLA infusion in cirrhosis with HE: ammonia and glutamine. The format is in vivo, human.
Description: as §2

Data set [9] deals with patients with advanced cirrhosis. Description: Aspartate accumulation during L-ornithine L-aspartate treatment. The class given is in vivo, human.
The mark [10] stands for this setting: LOLA 40 g over 8 hours (FIG. 8).

Entries after “also recorded” stand apart in the source; their conditions may differ.

Take phenylbutyrate: the plasma ammonia entry was “significant increase” in the data set with BDL cirrhotic rats (after 1 hour, p<0.01 vs all other groups) and “difference was found to be smaller” in the data set with BDL cirrhotic rats (three hour time point / end of the study). For the same compound, the arterial ammonia entry in data set [1] (0.3 g/Kg each over 3 hours, to experiment termination (FIG. 22), listed as Phenylbutyrate alone) is “initial blunting of arterial ammonia levels, which quickly rises to levels comparable with ornithine alone at experiment termination; also recorded: insignificant effects”. In addition, the “muscle ammonia uptake/production (femoral vein-artery)” value in data set [1] (listed as P alone) is “increase in ammonia production by the muscle”; in [1] (listed as Phenylbutyrate alone), “little change”. Also, the “gut ammonia production (portal drained viscera-artery)” value in [1] (FIG. 24) was “appreciable”. Moreover, in [1] (FIG. 25, listed as Phenylbutyrate alone), the muscle glutamine release entry was “net removal”. Moreover, in data set [1] (FIG. 26), the gut glutamine uptake result is “little overt effect”. For the same compound, in data set [1] (FIG. 28), the arterial glutamine levels entry is recorded as “marginally increases”. In addition, the Dead/Alive result in data set [2] (individual patients P3-P8, listed as Phenylbutyrate alone) was “P5: A; also recorded: P6: A”. Further, the mean ammonia levels entry in data set [2] is recorded as “increased from baseline values”. Further, the mean glutamine levels result in [2] is “reduction”.
For `NCCC[C@H](N)C(=O)O` [ornithine], the Ornithine levels result in data set [3] (over the course of OIP treatment, reduced to basal values on stopping the drug (FIG. 18)) was “marked sustained increase”. For the same compound, the arterial ornithine levels result in data set [1] (FIG. 27) is recorded as “increase”. In data set [2], the mean ammonia levels entry is listed as “increased from baseline values” and the mean glutamine levels result was “increase”.
Turning to `N` [ammonia], in the data set with neutrophils [4], the neutrophil chemotaxis entry is “significant reduction”. Moreover, in the data set with neutrophils [5] (blood of healthy volunteers incubated 1 hour with increasing concentrations of ammonia (FIG. 2)), the neutrophil phagocytosis entry is on record as “significant reduction”.
As to `CC[C@H](C)[C@H](N)C(=O)O` [isoleucine], the “Net Balance” value in data set [6] (Leg, End) was 261 ± 102 nmol/kg body cell mass/min; in [6] (Leg, t = 0 hours), −185 ± 152 nmol/kg body cell mass/min; in data set [6] (Liver, End), 682 ± 165 nmol/kg body cell mass/min; in data set [6] (Liver, t = 0 hours) it was 98 ± 33 nmol/kg body cell mass/min. Also, the Protein breakdown in data set [6] (Leg, End) was 159 ± 100 nmol/kg body cell mass/min; in [6] (Leg, t = 0 hours) it was 196 ± 61 nmol/kg body cell mass/min; in data set [6] (Liver, End), 157 ± 204 nmol/kg body cell mass/min; in data set [6] (Liver, t = 0 hours) it was 109 ± 25 nmol/kg body cell mass/min. For the same compound, the Protein synthesis in [6] (Leg, End) is given as 377 ± 135 nmol/kg body cell mass/min; in [6] (Leg, t = 0 hours), −31 ± 201 nmol/kg body cell mass/min; in data set [6] (Liver, End (final hour of amino acid infusion)), 839 ± 221 nmol/kg body cell mass/min; in [6] (Liver, t = 0 hours), 218 ± 37 nmol/kg body cell mass/min. Moreover, the “protein synthesis of liver and muscle” value in [6] (isoleucine infusion during simulated bleed) is given as “restores impaired protein synthesis”. For the same compound, the “ammonia concentration, isoleucine versus placebo” value in data set [6] (simulated bleed over 4 hours (FIG. 7)) was “not significantly different”. Moreover, the “patients died from multiorgan failure in the hospital” value in data set [3] (2 patients per group) is “One”. The ammonia concentrations result in [3] (FIG. 14) was “no significant changes”. Further, in data set [3] (FIG. 15), the glutamine levels entry was “not significantly altered”. For the same compound, the Dead/Alive entry in data set [3] (individual patients P3-P6, listed as Isoleucine alone) is “P3: A; also recorded: P4: D”. For the same compound, in data set [7], the neutrophil chemotaxis is recorded as 25.4 (±6.0) cells/high power field.
As to L-ornithine L-aspartate [LOLA], the ammonia concentration result in [8] (LOLA 40 g over 8 hours with CVVH (FIG. 9)) was “reduction”; with patients with cirrhosis (setting [10]), “significant reduction”. Besides, the glutamine concentration entry in data set [8] (LOLA with addition of dialysis (FIG. 9)) is listed as “prevented the concomitant increase”; in the data set with patients with cirrhosis (setting [10]) it was “concomitant rise”. In the data set with patients with cirrhosis (LOLA 40 g over 8 hours), the “severity of HE” value is listed as “beneficial effects”. For the same compound, the “recurrence of HE” value in the data set on patients with cirrhosis (after LOLA was stopped) is given as 3 of the 6. Further, the “circulating ammonia levels when LOLA was stopped” value with patients with cirrhosis (after stopping infusion) is given as “rebound increase”. The ASPARTATE concentration in [9] (Day 1, 40 g/day) is 178 µmol/L; in data set [9] (Day 2, 40 g/day), 289 µmol/L; in data set [9] (Day 3, 40 g/day) it was 354 µmol/L; in [9] (PRE, 40 g/day L-ornithine L-aspartate) it was 72 µmol/L. In [9] (over a 3 day period), the “increase in the aspartate concentration” value amounted to 5 times the basal value.
Turning to `NC(=O)CC[C@H](N)C(=O)O` [glutamine], the “ammonia-induced reduction in neutrophil phagocytosis” value in the data set on neutrophils [5] (blood incubated 1 hour with ammonia and selected amino acid (FIG. 4)) is “partially reversed”.

The values are drawn from patent US10610506B2 (UCL Business PLC, priority 2004, dated 2020).
